# In patent publication US9694072B2, “Methods for diagnosing and treating neuroendocrine cancer” (Trustees of Dartmouth College, priority 2005, dated 2017):
# Where two headings read alike, the source gives them in different places.
# How the values were obtained:
# [1] = tested on: NCI-H345 classical SCLC cells; test: Cell growth/viability assay (Alamar Blue)
# Protocol: Cultures of NCI-H345, NCI-H146, DMS-53 cells (classical cell lines), and NCI-H82 cells (variant cell line) were treated with 0.05% trypsin, washed in phosphate buffered saline (PBS)/glycine and plated onto 96-well plates at 10^4 cells/well in medium for 24 hours to provide time for rectifying possible damage to membrane proteins from the trypsinization. The wells were washed and incubated with PBS/glycine containing albumin (1.25 mg/mL) in the presence or absence of different concentrations (25 μM-800 μM) of either the NMDAR 1 antagonists, Memantine or MK-801; or the NMDAR2B antagonists Ifenprodil and Ro 25-6981 (binders to the polyamine site), or the NMDAR2B antagonists L-701,252 and L-701,324 (binders to the glycine site), or vehicle; and Alamar Blue (1:10 dilution following manufacturer's recommendation). Fluorescent readings were taken at periods representing 24, 48, and 72 hours of incubation with antagonist using a Synergy HT Multi-Detection Microplate Reader and excitation/emission wavelengths of 530 nm and 590 nm. Cell viability was evaluated as % vehicle control at the corresponding incubation time.
# This peptide domain is represented in that portion of the mRNA message sequenced by RT-PCR. For studies on cell proliferation, the IgGs of this antiserum were first isolated by precipitation with 50% saturated ammonium sulfate, and antibodies purified from these immunoglobulins by affinity chromatography using a column containing the peptide component of the above antigen coupled to SEPHAROSE (Friedmann, et al. (1994) supra; Keegan, et al. (2002) supra).
# [2] = tested on: NCI-H82 variant SCLC cells; test: Cell growth/viability assay (Alamar Blue); type: cell-based, human; conditions: for IC50: read-out: IC50, cell viability; for Cell viability reduced to: NCI-H82, 24, 48, and 72 hours incubation
# Protocol: (§3) Cultures of NCI-H345, NCI-H146, DMS-53 cells (classical cell lines), and NCI-H82 cells (variant cell line) were treated with 0.05% trypsin, washed in phosphate buffered saline (PBS)/glycine and plated onto 96-well plates at 10^4 cells/well in medium for 24 hours to provide time for rectifying possible damage to membrane proteins from the trypsinization. […] Fluorescent readings were taken at periods representing 24, 48, and 72 hours of incubation with antagonist using a Synergy HT Multi-Detection Microplate Reader and excitation/emission wavelengths of 530 nm and 590 nm. Cell viability was evaluated as % vehicle control at the corresponding incubation time.
# DMS-53 cells = test: Cell growth/viability assay (Alamar Blue); type: cell-based, human; conditions: for effect on cell viability (in words): DMS-53, 48 hours, concentration range used
# Protocol: as §3
# [3] = tested on: NCI H82 variant small-cell cancer cell xenografts; test: NCI H82 xenografts treated with ifenprodil; type: in vivo, nu/nu mice
# Protocol: Male nu/nu mice were injected subcutaneously with NCI H82 variant small-cell cancer cells (˜10^7 cells/mouse) representing recurrent disease, and tumors became obvious after 2-3 weeks, and commenced growing rapidly. Animals were divided into two groups.
# In another set of experiments, NCI H82 tumors were pretreated with cyclophosphamide for three days (single dose of 75 mg/kg body weight) before a single daily dose of i.p. ifenprodil (2.5 mg/kg) commenced.
# LAN2 neuroblastoma cells = test: Alamar Blue growth study; type: cell-based, human; conditions: LAN2, in the presence of glycine over 24 hours
# Protocol: (§1) Results represent triplicate studies performed with Alamar Blue on LAN2 neuroblastoma, MCF-7 breast cancer, and SKBr3 breast cancer cells examining the growth influence of 1 mM glutamate in the presence of glycine over 24 hours.
# (§2) Results represent triplicate studies performed with Alamar Blue on LAN2 neuroblastoma, MCF-7 breast cancer, and SKBr3 breast cancer cells examining the growth influence of 100 mM Mg^++ in the presence of glycine over 24 hours.
# [4] = tested on: MCF-7 breast cancer cells; test: Alamar Blue growth/proliferation study; type: cell-based, human; conditions: for effect on cell growth/proliferation (in words): MCF-7, in the presence of glycine over 24 hours
# [5] = tested on: SKBr3 breast cancer cells; test: Alamar Blue growth/proliferation study; type: cell-based, human; conditions: for effect on cell growth/proliferation (in words): SKBr3, in the presence of glycine over 24 hours
# Protocol: as §1, §2
# [6] = tested on: human LA-N-2 neuroblastoma cells; conditions: cited from earlier work
# [7] = tested on: human LA-N2 neuroblastoma cells; conditions: in the presence of glycine; cited from earlier work
# NCI-H146 cells = test: Cell growth/viability assay (Alamar Blue); type: cell-based, human
# Protocol: as §3
# [8] = Homo sapiens, NCI-H345, 48 h, read-out: IC50, cell viability
# [9] = Homo sapiens, NCI-H345, read-out: IC50, cell viability
# [10] = Homo sapiens, NCI-H82, 48 and 72 hours of incubation, Alamar Blue (figure legend)
# [11] = Homo sapiens, NCI-H82, at 48 hours
# [12] = 2.5 mg/kg once daily intraperitoneally
smiles,measurement,setting,value
CC(C(O)c1ccc(O)cc1)N1CCC(Cc2ccccc2)CC1 (centres unmarked) [Ifenprodil],Cell viability reduced to,[1],about 10 % of control
same,IC50,[1]; [8],~150 µM
same,IC50,[1]; [9],150 to 200 µM
same,IC50,[2]; [10],150 to 200 µM
same,IC50,[2]; [11],~150 µM
same,Cell viability reduced to,[2],about 10 % of control
same,effect on cell viability (in words),DMS-53 cells,smaller decreases
same,time tumors maintained sizes of less than their original size,[3]; [12],~10 days
same,tumor size by 2 weeks of treatment,[3]; [12],< 2 times their original size
same,tumors first shrank to,[3]; [12],~80 % of their original size
same,tumor growth vs saline-treated control mice (in words),[3]; ifenprodil alone,inhibits the growth
same,body weight compared to saline-treated animals,[3]; over 8 days of drug treatment,no change in body weight
"N[C@@H](CCC(=O)O)C(=O)O [glutamate, L-glutamic acid]",effect on cell growth/proliferation (in words),LAN2 neuroblastoma cells,decreased cell growth
same,effect on cell growth/proliferation (in words),[4],increased proliferation
same,effect on cell growth/proliferation (in words),[5],increased proliferation
same,Cell cytotoxicity increased,[6]; incubation at 1 mM,27%
same,Cell cytotoxicity increased,[6]; incubation at 10 mM,37%
same,inward sodium current increased,[7],1.5 ×
CC12CC3CC(C)(C1)CC(N)(C3)C2 [memantine],Proliferation of MCF-7 Cells Percent Fluorescence Compared to Control,"[4]; 100 μM, 24 Hours",92.86 ± 6.08%
same,Proliferation of MCF-7 Cells Percent Fluorescence Compared to Control,"[4]; 100 μM, 48 Hours",89.98 ± 5.30%
same,Proliferation of MCF-7 Cells Percent Fluorescence Compared to Control,"[4]; 100 μM, 72 Hours",88.48 ± 4.02%
same,Proliferation of MCF-7 Cells Percent Fluorescence Compared to Control,"[4]; 200 μM, 24 Hours",73.51 ± 5.64%
same,Proliferation of MCF-7 Cells Percent Fluorescence Compared to Control,"[4]; 200 μM, 48 Hours",49.78 ± 6.85%
same,Proliferation of MCF-7 Cells Percent Fluorescence Compared to Control,"[4]; 200 μM, 72 Hours",46.62 ± 7.04%
same,Proliferation of MCF-7 Cells Percent Fluorescence Compared to Control,"[4]; 300 μM, 24 Hours",48.81 ± 5.18%
same,Proliferation of MCF-7 Cells Percent Fluorescence Compared to Control,"[4]; 300 μM, 48 Hours",22.33 ± 5.21%
same,Proliferation of MCF-7 Cells Percent Fluorescence Compared to Control,"[4]; 300 μM, 72 Hours",20.02 ± 4.97%
same,Proliferation of MCF-7 Cells Percent Fluorescence Compared to Control,"[4]; 400 μM, 24 Hours",39.62 ± 5.21%
same,Proliferation of MCF-7 Cells Percent Fluorescence Compared to Control,"[4]; 400 μM, 48 Hours",15.79 ± 4.79%
same,Proliferation of MCF-7 Cells Percent Fluorescence Compared to Control,"[4]; 400 μM, 72 Hours",14.38 ± 3.92%
same,Proliferation of MCF-7 Cells Percent Fluorescence Compared to Control,"[4]; 500 μM, 24 Hours",38.40 ± 2.98%
same,Proliferation of MCF-7 Cells Percent Fluorescence Compared to Control,"[4]; 500 μM, 48 Hours",14.60 ± 3.21%
same,Proliferation of MCF-7 Cells Percent Fluorescence Compared to Control,"[4]; 500 μM, 72 Hours",13.40 ± 3.29%
same,Proliferation of MCF-7 Cells Percent Fluorescence Compared to Control,"[4]; 600 μM, 24 Hours",39.22 ± 4.13%
same,Proliferation of MCF-7 Cells Percent Fluorescence Compared to Control,"[4]; 600 μM, 48 Hours",15.10 ± 7.28%
same,Proliferation of MCF-7 Cells Percent Fluorescence Compared to Control,"[4]; 600 μM, 72 Hours",13.66 ± 6.62%
same,Proliferation of MCF-7 Cells Percent Fluorescence Compared to Control,"[4]; 700 μM, 24 Hours",32.80 ± 2.19%
same,Proliferation of MCF-7 Cells Percent Fluorescence Compared to Control,"[4]; 700 μM, 48 Hours",12.51 ± 2.35%
same,Proliferation of MCF-7 Cells Percent Fluorescence Compared to Control,"[4]; 700 μM, 72 Hours",11.89 ± 2.62%
same,Proliferation of MCF-7 Cells Percent Fluorescence Compared to Control,"[4]; 800 μM, 24 Hours",32.82 ± 2.44%
same,Proliferation of MCF-7 Cells Percent Fluorescence Compared to Control,"[4]; 800 μM, 48 Hours",12.34 ± 2.01%
same,Proliferation of MCF-7 Cells Percent Fluorescence Compared to Control,"[4]; 800 μM, 72 Hours",11.82 ± 2.25%
same,Proliferation of MCF-7 Cells Percent Fluorescence Compared to Control,"[4]; 900 μM, 24 Hours",32.23 ± 2.13%
same,Proliferation of MCF-7 Cells Percent Fluorescence Compared to Control,"[4]; 900 μM, 48 Hours",12.03 ± 2.15%
same,Proliferation of MCF-7 Cells Percent Fluorescence Compared to Control,"[4]; 900 μM, 72 Hours",11.57 ± 2.41%
same,reduce proliferation by,"[4]; MCF-7, 0.3 mM, 48 and 72 hours",about 80%
same,effect on proliferation (in words),"[4]; MCF-7, NMDAR1 antagonist treatment",decreased the proliferation
same,effect on proliferation (in words),"[5]; SKBr3, NMDAR1 antagonist treatment",decreased the proliferation
same,Cell viability reduced to,[1],about 10 % of control
same,IC50,[1]; [8],80 to 130 µM
same,IC50,[1]; [9],80 to 100 µM
same,IC50,[2]; [10],80 to 100 µM
same,IC50,[2]; [11],80 to 130 µM
same,Cell viability reduced to,[2],about 10 % of control
same,IC50,"NCI-H146 cells; Homo sapiens, NCI-H146, at 48 hours, read-out: IC50, cell viability",400 µM
same,IC50,"DMS-53 cells; Homo sapiens, DMS-53, at 48 hours, read-out: IC50, cell viability",800 µM
[Mg+2] [magnesium],effect on cell growth/proliferation (in words),LAN2 neuroblastoma cells,significantly inhibited proliferation
same,effect on cell growth/proliferation (in words),[4],significantly inhibited proliferation
same,effect on cell growth/proliferation (in words),[5],significantly inhibited proliferation
CC(C(O)c1ccc(O)cc1)N1CCC(Cc2ccccc2)CC1 (centres unmarked) [Ro 25-6981],IC50,"[1]; read-out: IC50, cell viability, NCI-H345, at 48 hours",~200 µM
same,IC50,"[2]; NCI-H82, at 48 hours",~200 µM
same,effect on cell viability (in words),"NCI-H146 cells; NCI-H146, 48 hours, concentration range used",no clear effects
same,effect on cell viability (in words),DMS-53 cells; listed as Ro 25-698,no clear effects
"NC(=O)c1ccccc1C(=O)N[C@@H](CCC(=O)O)C(=O)O [NPG, N-phthalamoyl-L-glutamic acid]",Cell cytotoxicity increased,[6]; incubation at 0.1 mM,28%
same,Cell cytotoxicity increased,[6]; incubation at 1 mM,46%
same,inward sodium current increased,[7],1.5 ×
"O=c1[nH]c2cc(Cl)ccc2c(O)c1-c1cccc(Oc2ccccc2)c1 [L-701,324]",increase in cell viability to,"[1]; NCI-H345, at 48 hours",approximately 140 % of control
same,increase in cell viability to,"[2]; NCI-H82, at 48 hours",approximately 120 % of control
